Target: Ba/F3 V617F cells (Homo sapiens, UniProt O60674, V617F, cells depend on it)
Test: Proliferation assay (Cell Titer-Glo, 72 h) utilizing Ba/F3 V617F cells
Type: cell-based, mouse
Settings: Ba/F3 V617F cells, proliferation, level of activity to inhibit JAK2, read-out: IC50 (the source's name)
Description: Ba/F3 V617F cells are maintained and plated in RPMI with 10% FBS. Plating density for these cells is 1×10^5 cells/mL.
The cells were resuspended in a corresponding medium at a required cell density (see above). 100μ of cell suspension was added to each well of a flat bottom 96 well white plate. The compound was serially diluted in DMSO from 5 mM in 3-fold dilutions, and then diluted 1:250 in the RPMI 1640 medium containing 5% FBS and pen/strep. 100 μL of resulting 2× compound solution was added per well in duplicate and the cells were allowed to proliferate for 72 hours at 37° C.
Proliferation was measured using Cell Titer-Glo. The substrate was thawed and allowed to come to ambient temperature. After removal of top 100 μL of medium from each well, 100 μL of the premixed Cell Titer-Glo reagent was added to each well. The plates were mixed on an orbital shaker for three minutes to induce lysis and incubated at ambient temperature for an additional five minutes to allow the signal to equilibrate. The Luminescence was read on the Wallac Plate Reader.
The results of the ability of the compounds of the invention to inhibit JAK2 activity, when tested in the above assay utilizing Ba/F3 V617F cells, are shown in the following Tables 2-3 wherein the level of activity (i.e., the IC50) for each compound is indicated in Tables 2-3. The compound numbers in Tables 2-3 refers to the compounds disclosed herein as being prepared by the methods disclosed herein: […]

Chain of Ba/F3 V617F cells (O60674 whole entry V617F): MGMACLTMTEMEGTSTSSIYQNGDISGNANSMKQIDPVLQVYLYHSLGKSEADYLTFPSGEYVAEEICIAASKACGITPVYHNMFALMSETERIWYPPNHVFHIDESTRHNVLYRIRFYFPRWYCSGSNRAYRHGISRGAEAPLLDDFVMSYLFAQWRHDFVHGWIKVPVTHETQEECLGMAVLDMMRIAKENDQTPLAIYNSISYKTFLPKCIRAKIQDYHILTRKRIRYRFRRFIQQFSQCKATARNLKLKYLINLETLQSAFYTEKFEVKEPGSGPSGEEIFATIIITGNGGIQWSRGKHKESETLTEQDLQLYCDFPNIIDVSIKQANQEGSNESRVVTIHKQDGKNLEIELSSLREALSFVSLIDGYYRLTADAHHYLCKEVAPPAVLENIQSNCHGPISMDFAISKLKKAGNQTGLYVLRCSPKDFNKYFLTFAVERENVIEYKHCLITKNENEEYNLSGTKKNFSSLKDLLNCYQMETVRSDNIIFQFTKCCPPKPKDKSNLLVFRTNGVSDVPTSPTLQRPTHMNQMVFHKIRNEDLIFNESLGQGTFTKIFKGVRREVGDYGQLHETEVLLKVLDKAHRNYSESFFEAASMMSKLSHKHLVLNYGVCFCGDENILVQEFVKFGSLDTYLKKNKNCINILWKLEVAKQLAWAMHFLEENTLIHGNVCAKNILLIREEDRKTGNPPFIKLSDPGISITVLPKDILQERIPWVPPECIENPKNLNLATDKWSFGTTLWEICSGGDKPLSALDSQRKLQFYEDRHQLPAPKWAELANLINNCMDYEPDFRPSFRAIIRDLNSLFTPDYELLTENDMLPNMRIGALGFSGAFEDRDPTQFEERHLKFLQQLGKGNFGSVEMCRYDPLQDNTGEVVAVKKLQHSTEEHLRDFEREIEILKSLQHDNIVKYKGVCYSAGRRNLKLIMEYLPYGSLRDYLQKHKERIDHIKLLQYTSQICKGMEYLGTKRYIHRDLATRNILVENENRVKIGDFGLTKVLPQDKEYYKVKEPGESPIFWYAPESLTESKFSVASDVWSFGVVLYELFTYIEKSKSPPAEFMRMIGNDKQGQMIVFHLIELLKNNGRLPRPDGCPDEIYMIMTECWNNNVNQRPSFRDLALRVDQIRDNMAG

| SMILES | GI50 |
| --- | --- |
| CCN1C[C@@H]2C[C@H]1CN2c1ccc(Nc2nccc(-c3cnc4c(c3)OC(C)(C)C(=O)N4)n2)cc1C [compound 30, 4-(2,2-dimethyl-3-oxo-3,4-dihydro-2H-pyrido[3,2-b][1,4]oxazin-7-yl)-N-(3-methyl-4-((1S,4S)-5-ethyl-2,5-diazabicyclo[2.2.1]heptan-2-yl)phenyl)pyrimidin-2-amine] | < 1000 nM |
| Cc1cc(Nc2nccc(-c3cnc4c(c3)OC3(CCC3)C(=O)N4)n2)ccc1N1C[C@@H]2C[C@H]1CN2C [compound 31, 4-(3′-oxo-3,4′-dihydrospiro[cyclobutane-1,2′-pyrido[3,2-b][1,4]oxazine]-7-yl)-N-(3-methyl-4-((1S,4S)-5-methyl-2,5-diazabicyclo[2.2.1]heptan-2-yl)phenyl)pyrimidin-2-amine] | < 1000 nM |
| CCN1C[C@@H]2C[C@H]1CN2c1ccc(Nc2nccc(-c3cnc4c(c3)OC3(CCC3)C(=O)N4)n2)cc1C [compound 32, 4-(3′-oxo-3′,4′-dihydrospiro[cyclobutane-1,2′-pyrido[3,2-b][1,4]oxazine]-7′-yl)-N-(3-methyl-4-((1S,4S)-5-ethyl-2,5-diazabicyclo[2.2.1]heptan-2-yl)phenyl)pyrimidin-2-amine] | < 1000 nM |
| Cc1cc(Nc2nccc(-c3cnc4[nH]ccc4c3)n2)ccc1N1C[C@@H]2C[C@H]1CO2 [compound 33, 4-(1H-pyrrolo[2,3-b]pyridin-5-yl)-N-(3-methyl-4-((1S,4S)-5-oxa-2-azabicyclo[2.2.1]heptan-2-yl)phenyl)pyrimidin-2-amine] | < 1000 nM |
| Cc1cc(Nc2nccc(-c3cnc4[nH]ccc4c3)n2)ccc1N1C[C@@H]2C[C@H]1CN2CC(F)(F)F [compound 34, 4-(1H-pyrrolo[2,3-b]pyridin-5-yl)-N-(3-methyl-4-((1S,4S)-5-(2,2,2-trifluoroethyl)-2,5-diazabicyclo[2.2.1]heptan-2-yl)phenyl)pyrimidin-2-amine] | < 1000 nM |
| Cc1cc(Nc2nccc(-c3cnc4[nH]ccc4c3)n2)ccc1N1C[C@@H]2C[C@H]1CN2CC1CC1 [compound 35, 4-(1H-pyrrolo[2,3-b]pyridin-5-yl)-N-(3-methyl-4-((1S,4S)-5-(cyclopropyl)methyl-2,5-diazabicyclo[2.2.1]heptan-2-yl)phenyl)pyrimidin-2-amine] | < 1000 nM |
| Cc1cc(Nc2nccc(-c3ccc(N4CCOCC4)nc3)n2)ccc1N1C[C@@H]2C[C@H]1CN2CC(F)(F)F [compound 36, 4-(6-(morpholin-4-yl)pyridin-3-yl)-N-(3-methyl-4-((1S,4S)-5-(2,2,2-trifluoroethyl)-2,5-diazabicyclo[2.2.1]heptan-2-yl)phenyl)pyrimidin-2-amine] | 1000 to 10000 nM |
| Cc1cc(Nc2nccc(-c3ccc(N4CCOCC4)nc3)n2)ccc1N1C[C@@H]2C[C@H]1CN2CC1CC1 [compound 37, 4-(6-(morpholin-4-yl)pyridin-3-yl)-N-(3-methyl-4-((1S,4S)-5-(cyclopropyl)methyl-2,5-diazabicyclo[2.2.1]heptan-2-yl)phenyl)pyrimidin-2-amine] | < 1000 nM |
| Cc1cc(Nc2nccc(-c3cnc4c(c3)OC(C)(C)C(=O)N4)n2)ccc1N1C[C@@H]2C[C@H]1CN2S(N)(=O)=O [compound 38, 4-(2,2-dimethyl-3-oxo-3,4-dihydro-2H-pyrido[3,2-b][1,4]oxazin-7-yl)-N-(3-methyl-4-((1S,4S)-5-(aminosulfonyl)-2,5-diazabicyclo[2.2.1]heptan-2-yl)phenyl)pyrimidin-2-amine] | < 1000 nM |
| CN1C[C@@H]2C[C@H]1CN2c1ccc(Nc2nccc(-c3ccnc(N4CCOCC4)c3F)n2)cc1F [compound 39, 4-(3-fluoro-2-(morpholin-4-yl)pyridin-4-yl)-N-(3-fluoro-4-((1S,4S)-5-methyl-2,5-diazabicyclo[2.2.1]heptan-2-yl)phenyl)pyrimidin-2-amine] | 1000 to 10000 nM |
| CN1C[C@@H]2C[C@H]1CN2c1ccc(Nc2nccc(-c3cnc(N4CCOCC4)nc3)n2)cc1 [compound 40, 4-(2-(morpholin-4-yl)pyrimidin-5-yl)-N-(4-((1S,4S)-5-methyl-2,5-diazabicyclo[2.2.1]heptan-2-yl)phenyl)pyrimidin-2-amine] | 1000 to 10000 nM |
| Cc1cc(Nc2nccc(-c3cnc(N4CCOCC4)nc3)n2)ccc1N1C[C@@H]2C[C@H]1CN2C [compound 41, 4-(2-(morpholin-4-yl)pyrimidin-5-yl)-N-(3-methyl-4-((1S,4S)-5-methyl-2,5-diazabicyclo[2.2.1]heptan-2-yl)phenyl)pyrimidin-2-amine] | < 1000 nM |
| Cc1cc(Nc2nccc(-c3cnc(N4CCOCC4)nc3)n2)ccc1N1C[C@@H]2C[C@H]1CO2 [compound 42, 4-(2-(morpholin-4-yl)pyrimidin-5-yl)-N-(3-methyl-4-((1S,4S)-5-oxa-2-azabicyclo[2.2.1]heptan-2-yl)phenyl)pyrimidin-2-amine] | 1000 to 10000 nM |
| CN1C[C@@H]2C[C@H]1CN2c1ccc(Nc2nccc(-c3cnc(N4CCOCC4)nc3)n2)cc1F [compound 43, 4-(2-(morpholin-4-yl)pyrimidin-5-yl)-N-(3-fluoro-4-((1S,4S)-5-methyl-2,5-diazabicyclo[2.2.1]heptan-2-yl)phenyl)pyrimidin-2-amine] | < 1000 nM |
| Cc1cc(Nc2nccc(-c3cnc(NC(=O)C4CC4)nc3)n2)ccc1N1C[C@@H]2C[C@H]1CN2C [compound 44, 4-(2-((cyclopropyl)carbonylamino)-pyrimidin-5-yl)-N-(3-methyl-4-((1S,4S)-5-methyl-2,5-diazabicyclo[2.2.1]heptan-2-yl)phenyl)pyrimidin-2-amine] | < 1000 nM |
| Cc1cc(Nc2nccc(-c3ccc(C(=O)NC4=NCCS4)cc3)n2)ccc1N1C[C@@H]2C[C@H]1CN2C [compound 45, 4-(4-(4,5-dihydrothiazol-2-ylcarbamoyl)phenyl)-N-(3-methyl-4-((1S,4S)-5-methyl-2,5-diazabicyclo[2.2.1]heptan-2-yl)phenyl)pyrimidin-2-amine] | 1000 to 10000 nM |
| Cc1cc(Nc2nccc(-c3ccc(C(C)(C)C)cc3)n2)ccc1N1C[C@@H]2C[C@H]1CN2C [compound 46, 4-(4-(1,1-dimethylethyl)phenyl)-N-(3-methyl-4-((1S,4S)-5-methyl-2,5-diazabicyclo[2.2.1]heptan-2-yl)phenyl)pyrimidin-2-amine] | < 1000 nM |
| CN1C[C@@H]2C[C@H]1CN2c1ccc(Nc2nccc(-c3ccc(N4CCOCC4)cc3)n2)cc1F [compound 47, 4-(4-(morpholin-4-yl)phenyl)-N-(3-fluoro-4-((1S,4S)-5-methyl-2,5-diazabicyclo[2.2.1]heptan-2-yl)phenyl)pyrimidin-2-amine] | 1000 to 10000 nM |
| CNC(=O)Cc1ccc(-c2ccnc(Nc3ccc(N4C[C@@H]5C[C@H]4CN5C)c(C)c3)n2)cc1 [compound 48, 4-(4-((methyl)aminocarbonylmethyl)-phenyl)-N-(3-methyl-4-((1S,4S)-5-methyl-2,5-diazabicyclo[2.2.1]heptan-2-yl)phenyl)pyrimidin-2-amine] | 1000 to 10000 nM |
| Cc1cc(Nc2nccc(-c3ccc(CC(=O)NC4CC4)cc3)n2)ccc1N1C[C@@H]2C[C@H]1CN2C [compound 49, 4-(4-((cyclopropyl)aminocarbonyl-methyl)phenyl)-N-(3-methyl-4-((1S,4S)-5-methyl-2,5-diazabicyclo[2.2.1]heptan-2-yl)phenyl)pyrimidin-2-amine] | 1000 to 10000 nM |
| CNC(=O)c1ccc(-c2ccnc(Nc3ccc(N4C[C@@H]5C[C@H]4CN5C)c(C)c3)n2)cn1 [compound 50, 4-(6-(methylaminocarbonyl)pyridin-3-yl)-N-(3-methyl-4-((1S,4S)-5-methyl-2,5-diazabicyclo[2.2.1]heptan-2-yl)phenyl)pyrimidin-2-amine] | < 1000 nM |
| Cc1cc(Nc2nccc(-c3cnc4c(c3)CCC(=O)N4)n2)ccc1N1C[C@@H]2C[C@H]1CN2C [compound 51, 4-(7-oxo-5,6,7,8-tetrahydro-1,8-naphthyridin-3-yl)-N-(3-methyl-4-((1S,4S)-5-methyl-2,5-diazabicyclo[2.2.1]heptan-2-yl)phenyl)pyrimidin-2-amine] | < 1000 nM |
| Cc1cc(Nc2nccc(-c3cncc(C(=O)N4CCOCC4)c3)n2)ccc1N1C[C@@H]2C[C@H]1CN2C [compound 52, 4-(5-((morpholin-4-yl)carbonyl)pyridin-3-yl)-N-(3-methyl-4-((1S,4S)-5-methyl-2,5-diazabicyclo[2.2.1]heptan-2-yl)phenyl)pyrimidin-2-amine] | < 1000 nM |
| CN1C[C@@H]2C[C@H]1CN2c1ccc(Nc2nccc(-c3cnc4c(c3)OC(C)(C)C(=O)N4)n2)cc1C#N [compound 53, 4-(2,2-dimethyl-3-oxo-3,4-dihydro-2H-pyrido[3,2-b][1,4]oxazin-7-yl)-N-(3-cyano-4-((1S,4S)-5-methyl-2,5-diazabicyclo[2.2.1]heptan-2-yl)phenyl)pyrimidin-2-amine] | < 1000 nM |

Same assay, conditions: inhibition of JAK2 activity, proliferation of Ba/F3 V617F cells, read-out: IC50 (the source's name)

| SMILES | GI50 |
| --- | --- |
| CN(C)c1ccc(-c2ccnc(Nc3ccc(N4C[C@@H]5C[C@H]4CN5C)nc3)n2)cn1 [compound 54, 4-(6-(dimethylamino)pyridin-3-yl)-N-(6-((1S,4S)-5-methyl-2,5-diazabicyclo[2.2.1]heptan-2-yl)pyridin-3-yl)pyrimidin-2-amine] | 1000 to 10000 nM |
